This is an account of results in ChEMBL document CHEMBL4613211, “Aurone: A biologically attractive scaffold as anticancer agent” (Eur J Med Chem, 2019).

Experiment [1] deals with RPMI-8226. The experiment is described as follows: Growth inhibition of human RPMI8226 cells at 10 uM after 48 hrs by sulforhodamine B assay relative to control. In kind it is functional. The settings on record: RPMI-8226, 48 h, read-out: GI.
Experiment [2] has as its system EKVX. Nature of the experiment: Growth inhibition of human EKVX cells at 10 uM after 48 hrs by sulforhodamine B assay relative to control. In kind it is functional. The settings on record: read-out: GI.
Experiment [3] concerns HOP-62. The experiment is described as follows: Growth inhibition of human HOP62 cells at 10 uM after 48 hrs by sulforhodamine B assay relative to control. In kind it is functional. The settings on record: HOP-62, 48 h, read-out: GI.
In experiment [4] the test system is HOP-92. The experiment is described as follows: Growth inhibition of human HOP92 cells at 10 uM after 48 hrs by sulforhodamine B assay relative to control. The class given is functional. The settings on record: HOP-92, 48 h, read-out: GI.
The subject of experiment [5] is HCT-116. The experiment is described as follows: Growth inhibition of human HCT116 cells at 10 uM after 48 hrs by sulforhodamine B assay relative to control. The settings on record: HCT-116, 48 h, read-out: GI. In kind it is functional. A general note: In SRB staining, fixed cells bind dye roughly in proportion to their protein.
Experiment [6] concerns HCT-15. Nature of the experiment: Growth inhibition of human HCT15 cells at 10 uM after 48 hrs by sulforhodamine B assay relative to control. The class given is functional. The settings on record: HCT-15, 48 h, read-out: GI.
The subject of experiment [7] is HT-29. The experiment is described as follows: Growth inhibition of human HT-29 cells at 10 uM after 48 hrs by sulforhodamine B assay relative to control. The settings on record: HT-29, 48 h, read-out: GI. The class given is functional.
The test system of experiment [8] is SF-268. The experiment is described as follows: Growth inhibition of human SF268 cells at 10 uM after 48 hrs by sulforhodamine B assay relative to control. The class given is functional. The settings on record: SF-268, 48 h, read-out: GI.
In experiment [9] the test system is SF-539. Nature of the experiment: Growth inhibition of human SF539 cells at 10 uM after 48 hrs by sulforhodamine B assay relative to control. The class given is functional. The settings on record: SF-539, 48 h, read-out: GI.
The subject of experiment [10] is LOX IMVI. Nature of the experiment: Growth inhibition of human LOXIMVI cells at 10 uM after 48 hrs by sulforhodamine B assay relative to control. The class given is functional. The settings on record: read-out: GI.
Experiment [11] has as its system MDA-MB-435. Nature of the experiment: Growth inhibition of human MDA-MB-435 cells at 10 uM after 48 hrs by sulforhodamine B assay relative to control. The class given is functional. The settings on record: MDA-MB-435, 48 h, read-out: GI.
Experiment [12] deals with SK-MEL-2. Nature of the experiment: Growth inhibition of human SK-MEL-2 cells at 10 uM after 48 hrs by sulforhodamine B assay relative to control. In kind it is functional. The settings on record: SK-MEL-2, 48 h, read-out: GI.
For experiment [13], the system named is SK-MEL-28. Nature of the experiment: Growth inhibition of human SK-MEL-28 cells at 10 uM after 48 hrs by sulforhodamine B assay relative to control. In kind it is functional. The settings on record: SK-MEL-28, 48 h, read-out: GI.
Experiment [14] has as its system OVCAR-5. Nature of the experiment: Growth inhibition of human OVCAR5 cells at 10 uM after 48 hrs by sulforhodamine B assay relative to control. The class given is functional. The settings on record: OVCAR-5, 48 h, read-out: GI.
The test system of experiment [15] is OVCAR-8. Nature of the experiment: Growth inhibition of human OVCAR8 cells at 10 uM after 48 hrs by sulforhodamine B assay relative to control. The settings on record: OVCAR-8, 48 h, read-out: GI. The class given is functional.
The subject of experiment [16] is CAKI-1. Nature of the experiment: Growth inhibition of human CAKI-1 cells at 10 uM after 48 hrs by sulforhodamine B assay relative to control. The class given is functional. The settings on record: CAKI-1, 48 h, read-out: GI.
The subject of experiment [17] is RXF 393. Nature of the experiment: Growth inhibition of human RXF393 cells at 10 uM after 48 hrs by sulforhodamine B assay relative to control. In kind it is functional. The settings on record: RXF 393, 48 h, read-out: GI.
Experiment [18] has as its system SN12C. The experiment is described as follows: Growth inhibition of human SN12C cells at 10 uM after 48 hrs by sulforhodamine B assay relative to control. In kind it is functional. The settings on record: read-out: GI.
Experiment [19] relates to TK-10. The experiment is described as follows: Growth inhibition of human TK10 cells at 10 uM after 48 hrs by sulforhodamine B assay relative to control. The settings on record: TK-10, 48 h, read-out: GI. The class given is functional.
The test system of experiment [20] is PC-3. The experiment is described as follows: Growth inhibition of human PC3 cells at 10 uM after 48 hrs by sulforhodamine B assay relative to control. The class given is functional. The settings on record: PC-3, 48 h, read-out: GI.
Experiment [21] has as its system BT-549. Nature of the experiment: Growth inhibition of human BT549 cells at 10 uM after 48 hrs by sulforhodamine B assay relative to control. The settings on record: BT-549, 48 h, read-out: GI. In kind it is functional.
The test system of experiment [22] is T47D. Nature of the experiment: Growth inhibition of human T47D cells at 10 uM after 48 hrs by sulforhodamine B assay relative to control. In kind it is functional. The settings on record: read-out: GI.
The test system of experiment [23] is MDA-MB-468. The experiment is described as follows: Growth inhibition of human MDA-MB-468 cells at 10 uM after 48 hrs by sulforhodamine B assay relative to control. In kind it is functional. The settings on record: MDA-MB-468, 48 h, read-out: GI.
Experiment [24] addresses Cyclin-dependent kinase 2 (Homo sapiens, UniProt P24941). The experiment is described as follows: Inhibition of CDK2 (unknown origin).

Regarding `COc1ccc(/C=C2\Oc3c(c(OC)c4ccoc4c3CN3CCOCC3)C2=O)cc1`, the inhibition of growth at 10 µM in experiment [1], in experiment [2], in [3], in experiment [4], in experiment [5] and in experiment [6] was 56.4 to 65.2% in each case. Besides, the inhibition of growth at 10 µM in experiment [7], in experiment [8], in experiment [9], in experiment [10], in experiment [11] and in experiment [12] was 56.4 to 65.2% each time. Moreover, the inhibition of growth at 10 µM in experiment [13], in experiment [14], in experiment [15], in [16], in experiment [17] and in experiment [18] was 56.4 to 65.2% in each case. For the same compound, the inhibition of growth at 10 µM in [19], in [20], in [21], in experiment [22] and in experiment [23] was 56.4 to 65.2% each time.
For the compound `COc1ccc2c(c1)O/C(=C\c1ccc(OCC(=O)Nc3ccccc3)c(OC)c1)C2=O`, the inhibition of growth at 10 µM in [1], in [2], in experiment [3], in experiment [4], in experiment [5] and in [6] was 18.9 to 27.1% in each case. The inhibition of growth at 10 µM in [7], in experiment [8], in [9], in [10], in experiment [11] and in experiment [12] was 18.9 to 27.1% each time. For the same compound, the inhibition of growth at 10 µM in experiment [13], in experiment [14], in [15], in [16], in [17] and in experiment [18] was 18.9 to 27.1% each time. Also, the inhibition of growth at 10 µM in experiment [19], in experiment [20], in [21], in experiment [22] and in experiment [23] was 18.9 to 27.1% throughout.
As usually defined, the IC50 is the concentration at which inhibition is half-maximal. Lower therefore signals greater potency in that assay. Take `COc1cc(/C=C2\Oc3cc4occc4c(OC)c3C2=O)ccc1OCC(=O)Nc1ccccc1`: the inhibition of growth at 10 µM in experiment [1], in experiment [2], in [3], in [4], in experiment [5] and in experiment [6] was 67.1 to 79.6% in each case. In addition, the inhibition of growth at 10 µM in [7], in experiment [8], in experiment [9], in experiment [10], in [11] and in [12] was 67.1 to 79.6% each time. Moreover, the inhibition of growth at 10 µM in [13], in experiment [14], in experiment [15], in experiment [16], in experiment [17] and in [18] was 67.1 to 79.6% each time. In addition, the inhibition of growth at 10 µM in experiment [19], in experiment [20], in experiment [21], in experiment [22] and in experiment [23] was 67.1 to 79.6% each time. Also, in [24], 1110 nM corresponded to half-maximal inhibition (IC50).
